Data: ChEMBL document CHEMBL5120836, “Discovery of novel 7,8-dihydropteridine-6(5H)-one-based DNA-PK inhibitors as potential anticancer agents via scaffold hopping strategy” (Eur J Med Chem, 2022)
Activity calls are given as the source filed them. No cut-off for these calls is given here.

Legend:
HCT-116 [1] = experiment: Induction of apoptosis in human HCT-116 cells assessed as viable cells at 1 uM incubated for 24 hrs in presence of 100 nM doxorubicin by AnnexinV-FITC/PI staining based flow cytometry (reference value: 93.9%); format: functional; conditions: read-out: Activity
[2] = Plasma protein binding in human assessed as free fraction; format: ADME, cell-free
HCT-116 [3] = experiment: Induction of apoptosis in human HCT-116 cells assessed as viable cells at 1 uM incubated for 24 hrs by AnnexinV-FITC/PI staining based flow cytometry (reference value: 93.9%); format: functional; conditions: read-out: Activity
[4] = Toxicity in BALB/c nude mouse xenografted with human HL-60 cells assessed as serum monocytes content at 100 mg/kg, po qd for 16 days (reference value: 12.2%); format: organism-based; conditions: in vivo, 384 h, time 16 day
[5] = MRT (0 to infinity) in Sprague-Dawley rat at 5 mg/kg, po; format: ADME, organism-based; conditions: in vivo
[6] = Toxicity in BALB/c nude mouse xenografted with human HL-60 cells assessed as platelets level at 100 mg/kg, po qd for 16 days (reference value: 738.5X10^9/L); format: organism-based; conditions: in vivo, 384 h, time 16 day
HL-60 [7] = experiment: Synergistic antitumor activity against human HL-60 cells xenografted in BALB/c nude mouse assessed as tumor volume at 100 mg/kg, po qd for 16 days co-administered with doxorubicin (reference value: 32.2%); format: functional; conditions: HL-60, 384 h, time 16 day
HL-60 [8] = experiment: Synergistic antiproliferative activity against human HL-60 cells assessed as combination index at 100 uM in presence of 0.1 uM doxorubicin by MTT assay; format: functional
[9] = Lipophilicity, logP of the compound; format: physicochemical; conditions: octanol/water
MDA-MB-231 = experiment: Synergistic antiproliferative activity against human MDA-MB-231 cells assessed as combination index at 0.5 uM in presence of 0.1 uM doxorubicin by MTT assay; format: functional
[10] = Cmax in Sprague-Dawley rat at 5 mg/kg, po; format: ADME, organism-based; set-up: dose 5 mg/kg, route po; conditions: in vivo
[11] = molecular target: Phosphatidylinositol 4,5-bisphosphate 3-kinase catalytic subunit alpha isoform (Homo sapiens, UniProt P42336); experiment: Inhibition of human PI3Kalpha by Kinase-Glo assay; format: toxicity
[12] = molecular target: T1, Phosphatidylinositol 4,5-bisphosphate 3-kinase catalytic subunit delta isoform (Homo sapiens, UniProt O00329); experiment: Inhibition of human PI3Kdelta by ADP-Glo assay; format: toxicity
T1 sequence (O00329 whole entry): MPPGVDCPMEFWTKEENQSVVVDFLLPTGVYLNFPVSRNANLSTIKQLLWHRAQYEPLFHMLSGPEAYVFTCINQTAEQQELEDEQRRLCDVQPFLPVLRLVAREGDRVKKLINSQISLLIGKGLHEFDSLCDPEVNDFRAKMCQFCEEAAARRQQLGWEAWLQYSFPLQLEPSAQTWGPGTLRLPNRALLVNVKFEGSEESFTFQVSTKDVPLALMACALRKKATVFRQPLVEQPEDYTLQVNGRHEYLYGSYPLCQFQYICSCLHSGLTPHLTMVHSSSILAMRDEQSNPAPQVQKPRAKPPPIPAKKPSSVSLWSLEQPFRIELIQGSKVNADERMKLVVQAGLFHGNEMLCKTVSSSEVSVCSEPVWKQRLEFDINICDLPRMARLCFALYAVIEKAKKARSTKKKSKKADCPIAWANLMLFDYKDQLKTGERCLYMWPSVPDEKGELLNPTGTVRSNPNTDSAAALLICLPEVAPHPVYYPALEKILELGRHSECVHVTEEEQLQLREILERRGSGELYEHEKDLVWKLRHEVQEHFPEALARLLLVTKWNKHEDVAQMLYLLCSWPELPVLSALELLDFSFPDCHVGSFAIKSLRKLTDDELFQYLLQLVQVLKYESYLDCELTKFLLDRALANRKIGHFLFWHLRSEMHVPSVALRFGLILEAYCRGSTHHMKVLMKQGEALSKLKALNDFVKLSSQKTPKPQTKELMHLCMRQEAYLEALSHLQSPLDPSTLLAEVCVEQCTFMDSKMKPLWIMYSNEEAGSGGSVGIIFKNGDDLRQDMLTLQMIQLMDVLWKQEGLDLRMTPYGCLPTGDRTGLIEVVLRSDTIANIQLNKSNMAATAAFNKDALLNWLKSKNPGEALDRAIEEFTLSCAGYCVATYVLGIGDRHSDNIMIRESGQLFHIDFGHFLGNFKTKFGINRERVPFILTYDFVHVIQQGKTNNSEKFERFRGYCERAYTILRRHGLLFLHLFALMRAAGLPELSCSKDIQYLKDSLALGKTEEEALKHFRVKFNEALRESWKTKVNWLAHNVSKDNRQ

MCF7 [13] = experiment: Synergistic antiproliferative activity against human MCF7 cells assessed as combination index at 1 uM in presence of 0.1 uM doxorubicin by MTT assay; format: functional
HepG2 [14] = experiment: Synergistic antiproliferative activity against Doxorubicin-resistant human HepG2 cells assessed as combination index at 0.5 uM in presence of 0.1 uM doxorubicin by MTT assay; format: functional
[15] = Toxicity in BALB/c nude mouse xenografted with human HL-60 cells assessed as serum WBC content at 100 mg/kg, po qd for 16 days (reference value: 3.8X10^9/L); format: organism-based; conditions: in vivo, 384 h, time 16 day
HepG2 [16] = experiment: Synergistic antiproliferative activity against Doxorubicin-resistant human HepG2 cells assessed as combination index at 200 uM in presence of 0.1 uM doxorubicin by MTT assay; format: functional
[17] = Toxicity in BALB/c nude mouse xenografted with human HL-60 cells assessed as effect on body weight at 100 mg/kg, po qd for 16 days; format: organism-based; conditions: in vivo, 384 h, time 16 day
HL-60 [18] = experiment: Synergistic antiproliferative activity against human HL-60 cells assessed as combination index at 1 uM in presence of 0.1 uM doxorubicin by MTT assay; format: functional
MCF7 [19] = experiment: Synergistic antiproliferative activity against human MCF7 cells assessed as inhibition of cell growth in presence of 100 nM doxorubicin by MTT assay; format: functional, cell-based
HL-60 [20] = experiment: Synergistic antiproliferative activity against human HL-60 cells assessed as combination index at 0.1 uM in presence of 0.1 uM doxorubicin by MTT assay; format: functional
HCT-116 [21] = experiment: Disruption of mitochondrial function in human HCT-116 cells assessed as decrease in mitochondrial membrane potential by measuring proportion of cells with green fluorescence at 1 uM incubated for 24 hrs by JC-1 staining based flow cytometry (reference value: 0.566%); format: functional; set-up: scale not given: the % may be the effect or the level left
[22] = Toxicity in BALB/c nude mouse xenografted with human HL-60 cells assessed as serum lymphocytes content at 100 mg/kg, po qd for 16 days (reference value: 2.65X10^9/L); format: organism-based; conditions: in vivo, 384 h, time 16 day
[23] = Half life in rat liver microsomes; format: ADME, Microsome
[24] = Tmax in Sprague-Dawley rat at 5 mg/kg, po; format: ADME, organism-based; conditions: in vivo
HepG2 [25] = experiment: Synergistic antiproliferative activity against Doxorubicin-resistant human HepG2 cells assessed as combination index at 100 uM in presence of 0.1 uM doxorubicin by MTT assay; format: functional
[26] = Toxicity in BALB/c nude mouse xenografted with human HL-60 cells assessed as serum granulocytes content at 100 mg/kg, po qd for 16 days (reference value: 0.51X10^9/L); format: organism-based; conditions: in vivo, 384 h, time 16 day

Chain of Phosphatidylinositol 4,5-bisphosphate 3-kinase catalytic subunit alpha isoform (P42336 whole entry, canonical isoform): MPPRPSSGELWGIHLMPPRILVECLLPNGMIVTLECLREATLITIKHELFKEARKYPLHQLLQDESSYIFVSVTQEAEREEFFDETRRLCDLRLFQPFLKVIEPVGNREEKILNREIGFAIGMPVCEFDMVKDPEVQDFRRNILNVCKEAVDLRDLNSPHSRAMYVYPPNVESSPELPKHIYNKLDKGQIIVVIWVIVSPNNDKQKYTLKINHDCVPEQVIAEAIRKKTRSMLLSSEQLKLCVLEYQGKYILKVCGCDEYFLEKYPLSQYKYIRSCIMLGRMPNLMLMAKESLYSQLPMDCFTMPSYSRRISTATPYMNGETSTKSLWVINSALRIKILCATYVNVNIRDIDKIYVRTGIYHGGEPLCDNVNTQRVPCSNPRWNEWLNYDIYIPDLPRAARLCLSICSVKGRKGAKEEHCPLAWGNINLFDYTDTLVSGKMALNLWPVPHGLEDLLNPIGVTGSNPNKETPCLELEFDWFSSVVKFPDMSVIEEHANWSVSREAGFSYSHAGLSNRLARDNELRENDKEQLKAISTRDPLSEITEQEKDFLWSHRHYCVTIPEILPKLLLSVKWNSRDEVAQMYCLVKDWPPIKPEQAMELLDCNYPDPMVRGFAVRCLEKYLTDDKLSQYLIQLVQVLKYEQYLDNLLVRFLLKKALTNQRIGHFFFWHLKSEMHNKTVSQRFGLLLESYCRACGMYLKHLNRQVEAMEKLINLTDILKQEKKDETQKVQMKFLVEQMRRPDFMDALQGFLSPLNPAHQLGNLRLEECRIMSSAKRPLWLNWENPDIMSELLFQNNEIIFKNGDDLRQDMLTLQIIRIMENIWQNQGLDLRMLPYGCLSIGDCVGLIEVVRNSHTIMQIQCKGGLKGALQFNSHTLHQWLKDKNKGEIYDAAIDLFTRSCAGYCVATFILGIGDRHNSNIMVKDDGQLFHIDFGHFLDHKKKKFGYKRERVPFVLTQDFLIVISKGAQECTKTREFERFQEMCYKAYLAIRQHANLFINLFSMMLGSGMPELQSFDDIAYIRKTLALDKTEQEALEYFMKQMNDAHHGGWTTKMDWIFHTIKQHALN

## Cc1cc2ncnn2cc1Nc1ncc2c(n1)N(C1CCOCC1)CC(=O)N2C
HCT-116 [1]
  viability at 1 µM: 79.1%
[2]
  fraction unbound: 0.859
HCT-116 [3]
  viability at 1 µM: 92.5%
[4]
  Activity: 12.15%
[5]
  MRT inf: 2.29 h
[6]
  Activity: 750 10^9/L
HL-60 [7]
  inhibition in vivo at 100 mg/kg: 62.4%
HL-60 [8]
  CI: 0.551
[9]
  logP: 1.28
MDA-MB-231
  CI: 0.3617
[10]
  Cmax: 810 ng/mL
[11]
  IC50: 187 nM
[12]
  IC50: 758 nM
MCF7 [13]
  CI: 0.03832
HepG2 [14]
  CI: 0.01657
[15]
  Activity: 4.35 10^9/L
HepG2 [16]
  CI: 0.2062
[17]
  Activity: Non-Toxic
HL-60 [18]
  CI: 0.00616
MCF7 [19]
  Activity: Active
HL-60 [20]
  CI: 0.00121
HCT-116 [21]
  Activity: 3.55%
[22]
  Activity: 3.2 10^9/L
[23]
  half-life: > 2.42 h
[24]
  Tmax: 0.42 h
HepG2 [25]
  CI: 0.1244
[26]
  Activity: 0.49 10^9/L
